Patent US20140163023A1, “DIHYDROPYRROLO PYRIMIDINE DERIVATIVES AS MTOR INHIBITORS” (Cellzome Limited, priority 2011, published 2014)

What was measured:
[1] = target: T1, PI3Kα (Homo sapiens, UniProt P42336); test: kinobeads assay, PI3Kα; assay type: binding; conditions: 1:1 mix of Jurkat and Ramos cell lysates, read-out: Inhibition values (IC50 in μM) as determined in the kinobeads assay, PI3Kα
T1 construct: endogenous in cells; host or cells: Jurkat (ATCC TIB-152, clone E6-1) and Ramos (ATCC CRL-1596), 1:1 lysate mix
T1 sequence (P42336 whole entry): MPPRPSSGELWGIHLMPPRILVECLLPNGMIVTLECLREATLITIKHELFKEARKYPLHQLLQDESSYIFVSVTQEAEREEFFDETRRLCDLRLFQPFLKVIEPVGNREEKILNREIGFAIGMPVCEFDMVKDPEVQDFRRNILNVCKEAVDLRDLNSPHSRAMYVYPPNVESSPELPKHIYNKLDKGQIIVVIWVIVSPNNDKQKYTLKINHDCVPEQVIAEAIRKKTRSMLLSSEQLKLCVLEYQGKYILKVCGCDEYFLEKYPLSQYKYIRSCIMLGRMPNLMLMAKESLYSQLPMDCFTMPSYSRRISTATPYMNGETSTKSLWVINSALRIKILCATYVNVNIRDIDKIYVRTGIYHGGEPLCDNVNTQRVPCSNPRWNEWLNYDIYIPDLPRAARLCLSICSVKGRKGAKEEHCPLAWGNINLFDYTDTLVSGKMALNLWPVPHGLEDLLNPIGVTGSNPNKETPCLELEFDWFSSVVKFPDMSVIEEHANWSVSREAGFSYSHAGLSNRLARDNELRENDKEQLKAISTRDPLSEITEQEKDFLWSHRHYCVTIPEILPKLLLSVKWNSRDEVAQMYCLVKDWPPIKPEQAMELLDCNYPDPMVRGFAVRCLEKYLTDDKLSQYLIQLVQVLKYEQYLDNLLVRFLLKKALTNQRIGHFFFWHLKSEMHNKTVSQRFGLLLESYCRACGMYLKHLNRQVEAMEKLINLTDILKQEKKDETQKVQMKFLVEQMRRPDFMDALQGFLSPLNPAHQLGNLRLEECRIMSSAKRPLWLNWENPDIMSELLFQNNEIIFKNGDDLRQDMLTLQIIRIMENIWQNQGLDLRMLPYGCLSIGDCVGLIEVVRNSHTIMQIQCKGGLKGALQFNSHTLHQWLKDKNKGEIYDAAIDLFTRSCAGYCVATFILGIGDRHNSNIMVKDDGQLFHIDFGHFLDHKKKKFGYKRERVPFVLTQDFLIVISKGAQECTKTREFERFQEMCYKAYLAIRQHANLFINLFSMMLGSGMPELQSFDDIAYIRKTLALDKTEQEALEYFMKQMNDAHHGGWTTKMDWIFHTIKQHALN
T1 sequence (P27986 whole entry partner): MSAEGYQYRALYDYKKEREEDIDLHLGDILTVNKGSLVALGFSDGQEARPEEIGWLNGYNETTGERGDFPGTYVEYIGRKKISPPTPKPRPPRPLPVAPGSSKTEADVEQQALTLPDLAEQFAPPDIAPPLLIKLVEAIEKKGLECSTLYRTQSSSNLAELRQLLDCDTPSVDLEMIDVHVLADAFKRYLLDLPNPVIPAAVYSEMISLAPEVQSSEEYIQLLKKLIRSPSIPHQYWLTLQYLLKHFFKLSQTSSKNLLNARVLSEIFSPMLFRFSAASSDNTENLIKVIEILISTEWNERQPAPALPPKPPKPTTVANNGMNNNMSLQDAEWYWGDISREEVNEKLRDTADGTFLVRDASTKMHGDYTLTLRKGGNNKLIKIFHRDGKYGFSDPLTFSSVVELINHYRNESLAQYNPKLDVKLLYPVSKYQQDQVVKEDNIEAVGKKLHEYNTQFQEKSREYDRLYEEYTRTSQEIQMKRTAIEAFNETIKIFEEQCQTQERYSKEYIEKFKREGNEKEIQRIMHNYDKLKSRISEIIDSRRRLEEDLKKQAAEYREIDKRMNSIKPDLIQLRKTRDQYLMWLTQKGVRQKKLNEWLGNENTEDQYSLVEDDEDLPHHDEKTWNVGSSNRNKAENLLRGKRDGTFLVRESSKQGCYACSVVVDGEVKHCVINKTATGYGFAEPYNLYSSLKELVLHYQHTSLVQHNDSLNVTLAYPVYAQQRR
Protocol: (§1) The compounds of the present invention as described were tested in the mTOR kinobeads assay as described below. Briefly, test compounds (at various concentrations) and the affinity matrix (1:1 mixture of beads with immobilized phenylthiazole ligand 1 and beads with immobilized phenylmorpholin-chromen ligand; WO 2009/098021) were added to cell lysate aliquots and allowed to bind to the proteins in the lysate sample. After the incubation time the beads with captured proteins were separated from the lysate. Bound proteins were then eluted and the presence of mTOR, PI3Kα, PI3Kβ, PI3Kγ, PI3Kδ and DNA-dependent protein kinase (DNA-PK) was detected and quantified using a specific antibody in a dot blot procedure and the Odyssey infrared detection system. Dose response curves for individual kinases were generated and IC50 values calculated. Kinobeads assays for PI3 kinases (WO-A 2008/015013) and for kinase selectivity profiling (WO 2009/098021) have been previously described.
(§2) Washing of Affinity Matrix
(§3) The affinity matrix was washed two times with 15 ml of 1×DP buffer containing 0.2% NP40 (IGEPAL® CA-630, Sigma, #13021) and then resupended in 5.5 ml of 1×DP buffer containing 0.2% NP40 (10% beads slurry).
(§4) 5×DP buffer: 250 mM Tris-HCl pH 7.4, 25% Glycerol, 7.5 mM MgCl2, 750 mM NaCl, 5 mM Na3VO4, filter the 5×-lysis buffer through 0.22 μm filter and store in aliquots at −80° C. The 5×DP buffer is diluted to 1×DP buffer containing 1 mM DTT and 25 mM NaF.
(§5) Preparation of Test Compounds
(§6) Stock solutions of test compounds were prepared in DMSO. In a 96 well plate 30 μl solution of diluted test compounds at 5 mM in DMSO were prepared. Starting with this solution a 1:3 dilution series (9 steps) was prepared. For control experiments (no test compound) a buffer containing 2% DMSO was used. Compound Pi-103 (Calbiochem catalogue number 528100) served as a positive control.
(§7) Cell Culture and Preparation of Cell Lysates
(§8) Jurkat cells (ATCC catalogue number TIB-152 Jurkat, clone E6-1) and Ramos cells (ATCC number CRL-1596) were grown in 1 litre Spinner flasks (Integra Biosciences, #182101) in suspension in RPMI 1640 medium (Invitrogen, #21875-034) supplemented with 10% Fetal Bovine Serum (Invitrogen) at a density between 0.15×10^6 and 1.2×10^6 cells/ml. Cells were harvested by centrifugation, washed once with 1×PBS buffer (Invitrogen, #14190-094) and cell pellets were frozen in liquid nitrogen and subsequently stored at −80° C.
(§9) Cells were homogenized in a Potter S homogenizer in lysis buffer: 50 mM Tris-HCl, 0.8% NP40, 5% glycerol, 150 mM NaCl, 1.5 mM MgCl2, 25 mM NaF, 1 mM sodium vanadate, 1 mM DTT, pH 7.5. One complete EDTA-free tablet (protease inhibitor cocktail, Roche Diagnostics, 1873580) per 25 ml buffer was added. The material was dounced 10 times using a mechanized POTTER S, transferred to 50 ml falcon tubes, incubated for 30 minutes on ice and spun down for 10 min at 20,000 g at 4° C. (10,000 rpm in Sorvall SLA600, precooled). The supernatant was transferred to an ultracentrifuge (UZ)-polycarbonate tube (Beckmann, 355654) and spun for 1 hour at 100.000 g at 4° C. (33.500 rpm in Ti50.2, precooled). The supernatant was transferred again to a fresh 50 ml falcon tube, the protein concentration was determined by a Bradford assay (BioRad) and samples containing 50 mg of protein per aliquot were prepared. The samples were immediately used for experiments or frozen in liquid nitrogen and stored frozen at −80° C.
(§10) Cell lysate (approximately 50 mg protein per plate) was thawed in a water bath at room temperature and then kept on ice. To the thawed cell lysate 1×DP 0.8% NP40 buffer containing protease inhibitors (1 tablet for 25 ml buffer; EDTA-free protease inhibitor cocktail; Roche Diagnostics 1873580) was added in order to reach a final protein concentration of 5 mg/ml total protein. For the kinobeads experiment a 1:1 mix of Jurkat and Ramos cell lysates was used. The diluted cell lysate was stored on ice. […]

[2] = target: T2, PI3Kβ (Homo sapiens, UniProt P42338); test: kinobeads assay, PI3Kβ; assay type: binding; conditions: 1:1 mix of Jurkat and Ramos cell lysates, read-out: Inhibition values (IC50 in μM) as determined in the kinobeads assay, PI3Kβ
T2 construct: endogenous in cells; host or cells: Jurkat (ATCC TIB-152, clone E6-1) and Ramos (ATCC CRL-1596), 1:1 lysate mix
T2 sequence (P42338 whole entry): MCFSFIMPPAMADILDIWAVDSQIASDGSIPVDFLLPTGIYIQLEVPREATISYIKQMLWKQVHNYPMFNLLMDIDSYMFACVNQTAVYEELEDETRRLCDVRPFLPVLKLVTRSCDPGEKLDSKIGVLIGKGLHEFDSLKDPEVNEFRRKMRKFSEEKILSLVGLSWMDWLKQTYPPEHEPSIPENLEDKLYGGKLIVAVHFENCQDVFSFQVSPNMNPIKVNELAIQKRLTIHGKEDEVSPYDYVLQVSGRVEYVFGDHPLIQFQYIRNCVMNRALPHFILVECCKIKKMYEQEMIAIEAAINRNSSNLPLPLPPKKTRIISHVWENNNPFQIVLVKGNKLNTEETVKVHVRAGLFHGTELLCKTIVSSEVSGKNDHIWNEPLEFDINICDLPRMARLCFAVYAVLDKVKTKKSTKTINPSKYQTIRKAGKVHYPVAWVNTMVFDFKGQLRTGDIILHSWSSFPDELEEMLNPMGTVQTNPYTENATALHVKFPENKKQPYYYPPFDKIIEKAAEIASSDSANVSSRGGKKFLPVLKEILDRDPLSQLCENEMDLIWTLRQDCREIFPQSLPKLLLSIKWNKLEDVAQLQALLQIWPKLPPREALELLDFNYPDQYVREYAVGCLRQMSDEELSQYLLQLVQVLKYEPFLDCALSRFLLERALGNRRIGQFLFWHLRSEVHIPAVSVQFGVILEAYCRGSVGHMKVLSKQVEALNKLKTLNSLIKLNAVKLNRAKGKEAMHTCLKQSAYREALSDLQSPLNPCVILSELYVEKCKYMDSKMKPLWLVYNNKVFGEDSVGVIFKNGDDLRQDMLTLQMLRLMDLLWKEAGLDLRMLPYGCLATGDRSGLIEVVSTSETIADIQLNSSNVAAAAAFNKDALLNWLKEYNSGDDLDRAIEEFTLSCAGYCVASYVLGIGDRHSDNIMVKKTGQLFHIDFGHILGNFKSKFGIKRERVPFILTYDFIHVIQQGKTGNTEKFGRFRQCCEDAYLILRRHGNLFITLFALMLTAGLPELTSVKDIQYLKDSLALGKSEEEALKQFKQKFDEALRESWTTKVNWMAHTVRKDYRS
T2 sequence (P27986 whole entry partner): as the sequence (P27986 whole entry partner) above
Protocol: as §1, §2, §3, §4, §5, §6, §7, §8, §9, §10

[3] = target: T3, PI3Kγ (Homo sapiens, UniProt P48736); test: kinobeads assay, PI3Kγ; assay type: binding; conditions: 1:1 mix of Jurkat and Ramos cell lysates, read-out: Inhibition values (IC50 in μM) as determined in the kinobeads assay, PI3Kγ
T3 construct: endogenous in cells; host or cells: Jurkat (ATCC TIB-152, clone E6-1) and Ramos (ATCC CRL-1596), 1:1 lysate mix
T3 sequence (P48736 whole entry): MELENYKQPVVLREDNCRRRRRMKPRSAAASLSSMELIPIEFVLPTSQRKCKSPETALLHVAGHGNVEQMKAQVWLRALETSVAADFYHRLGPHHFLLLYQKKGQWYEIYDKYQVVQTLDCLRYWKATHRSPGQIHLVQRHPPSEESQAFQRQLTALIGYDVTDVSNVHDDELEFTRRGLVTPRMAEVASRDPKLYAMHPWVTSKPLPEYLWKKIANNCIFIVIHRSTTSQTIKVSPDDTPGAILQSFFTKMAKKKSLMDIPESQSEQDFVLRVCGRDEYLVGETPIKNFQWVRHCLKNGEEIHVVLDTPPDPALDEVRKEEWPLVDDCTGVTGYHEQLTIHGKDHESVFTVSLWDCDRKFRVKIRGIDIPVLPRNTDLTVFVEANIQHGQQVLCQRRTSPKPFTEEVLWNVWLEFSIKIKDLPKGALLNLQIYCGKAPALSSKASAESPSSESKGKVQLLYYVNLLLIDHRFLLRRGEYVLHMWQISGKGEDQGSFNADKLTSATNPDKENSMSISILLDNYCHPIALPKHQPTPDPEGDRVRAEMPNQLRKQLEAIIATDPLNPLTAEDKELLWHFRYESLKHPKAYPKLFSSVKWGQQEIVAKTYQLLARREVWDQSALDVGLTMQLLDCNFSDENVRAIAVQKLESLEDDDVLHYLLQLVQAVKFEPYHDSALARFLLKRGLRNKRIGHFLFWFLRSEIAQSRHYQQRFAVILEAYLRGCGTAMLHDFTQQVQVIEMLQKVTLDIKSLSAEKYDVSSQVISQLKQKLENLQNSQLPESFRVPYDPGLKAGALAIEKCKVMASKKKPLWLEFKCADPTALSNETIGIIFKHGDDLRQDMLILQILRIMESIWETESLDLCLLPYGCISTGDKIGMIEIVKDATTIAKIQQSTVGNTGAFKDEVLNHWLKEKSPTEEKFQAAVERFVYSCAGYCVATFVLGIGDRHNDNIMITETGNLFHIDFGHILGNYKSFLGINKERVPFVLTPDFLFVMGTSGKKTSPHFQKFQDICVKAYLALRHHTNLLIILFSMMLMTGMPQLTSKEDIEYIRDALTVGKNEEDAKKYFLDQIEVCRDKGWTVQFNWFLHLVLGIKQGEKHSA
Protocol: as §1, §2, §3, §4, §5, §6, §7, §8, §9, §10

[4] = target: T4, DNA-dependent protein kinase (DNA-PK) (Homo sapiens, UniProt P78527); test: kinobeads assay, DNA-PK; assay type: binding; conditions: 1:1 mix of Jurkat and Ramos cell lysates, read-out: Inhibition values (IC50 in μM) as determined in the kinobeads assay, DNA-PK
T4 construct: endogenous in cells; host or cells: Jurkat (ATCC TIB-152, clone E6-1) and Ramos (ATCC CRL-1596), 1:1 lysate mix
Protocol: as §1, §2, §3, §4, §5, §6, §7, §8, §9, §10

[5] = target: T5, mTOR (Homo sapiens, UniProt P42345); test: mTOR kinobeads assay (competition binding in cell lysate, dot blot detection); conditions: 1:1 mix of Jurkat and Ramos cell lysates, read-out: Inhibition values (IC50 in μM) as determined in the kinobeads assay, mTor
T5 construct: endogenous in cells; host or cells: Jurkat (ATCC TIB-152, clone E6-1) and Ramos (ATCC CRL-1596), 1:1 lysate mix
Protocol: Determination of the Effect of the Compounds According to the Invention on mTOR
as §1, §2, §3, §4, §5, §6, §7, §8, §9
as §10, with “used.” for “used. The diluted cell lysate was stored on ice.”

[6] = target: T6, PI3Kδ (Homo sapiens, UniProt O00329); test: kinobeads assay, PI3Kδ; assay type: binding; conditions: 1:1 mix of Jurkat and Ramos cell lysates, read-out: Inhibition values (IC50 in μM) as determined in the kinobeads assay, PI3Kδ
T6 construct: endogenous in cells; host or cells: Jurkat (ATCC TIB-152, clone E6-1) and Ramos (ATCC CRL-1596), 1:1 lysate mix
T6 sequence (O00329 whole entry): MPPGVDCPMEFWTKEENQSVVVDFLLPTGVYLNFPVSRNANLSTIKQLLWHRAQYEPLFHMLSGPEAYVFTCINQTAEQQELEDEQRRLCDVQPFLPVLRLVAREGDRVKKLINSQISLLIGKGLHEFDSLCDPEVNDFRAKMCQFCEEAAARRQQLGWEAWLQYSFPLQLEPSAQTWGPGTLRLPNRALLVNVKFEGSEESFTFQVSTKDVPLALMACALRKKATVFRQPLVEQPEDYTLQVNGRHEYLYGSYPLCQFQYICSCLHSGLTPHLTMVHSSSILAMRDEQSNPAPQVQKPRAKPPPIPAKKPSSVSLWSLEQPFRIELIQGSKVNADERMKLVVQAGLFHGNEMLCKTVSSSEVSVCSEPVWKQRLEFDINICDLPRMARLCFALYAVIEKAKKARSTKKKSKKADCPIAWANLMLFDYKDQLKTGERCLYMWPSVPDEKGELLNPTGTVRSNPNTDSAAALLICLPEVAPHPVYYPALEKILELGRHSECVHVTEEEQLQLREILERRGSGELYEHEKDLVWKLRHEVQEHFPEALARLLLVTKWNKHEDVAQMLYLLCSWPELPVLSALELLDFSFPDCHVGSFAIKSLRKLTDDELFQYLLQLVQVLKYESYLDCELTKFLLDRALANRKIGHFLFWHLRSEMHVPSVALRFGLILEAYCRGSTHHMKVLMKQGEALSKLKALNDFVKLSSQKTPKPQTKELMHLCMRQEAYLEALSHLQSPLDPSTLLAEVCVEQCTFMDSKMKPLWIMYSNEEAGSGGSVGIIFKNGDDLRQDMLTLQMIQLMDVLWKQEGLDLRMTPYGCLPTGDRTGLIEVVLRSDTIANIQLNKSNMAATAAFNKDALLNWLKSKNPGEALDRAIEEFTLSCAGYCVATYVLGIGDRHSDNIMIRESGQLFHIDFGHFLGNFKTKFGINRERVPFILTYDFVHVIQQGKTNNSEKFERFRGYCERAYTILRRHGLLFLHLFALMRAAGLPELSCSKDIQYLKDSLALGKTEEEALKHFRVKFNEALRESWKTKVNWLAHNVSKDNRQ
T6 sequence (P27986 whole entry partner): as the sequence (P27986 whole entry partner) above
Protocol: as §1, §2, §3, §4, §5, §6, §7, §8, §9, §10

IC50 [1] [µM]	IC50 [2] [µM]	IC50 [3] [µM]	IC50 [4] [µM]	IC50 [5] [µM]	IC50 [6] [µM]	SMILES
> 100	> 100	> 100	> 100	0.1 to 1	> 100	C[C@H]1COCCN1c1nc2c(c(-c3ccc(NC(=O)NC4CC4)cc3)n1)CN(S(C)(=O)=O)C2 [Example 15, (S)-1-cyclopropyl-3-(4-(2-(3-methylmorpholino)-6-(methylsulfonyl)-6,7-dihydro-5H-pyrrolo[3,4-d]pyrimidin-4-yl)phenyl)urea]
> 100	> 100	> 100	> 100	1 to 10	> 100	C[C@H]1COCCN1C(=O)Nc1ccc(-c2nc(N3CCOC[C@@H]3C)nc3c2CNC3)cc1 [Example 16, (S)-3-methyl-N-(4-(2-((S)-3-methylmorpholino)-6,7-dihydro-5H-pyrrolo[3,4-d]pyrimidin-4-yl)phenyl)morpholine-4-carboxamide]
10 to 100	> 100	> 100	> 100	1 to 10	> 100	CCNC(=O)N1Cc2nc(N3CCOC[C@@H]3C)nc(-c3ccc(NC(=O)NC4CC4)cc3)c2C1 [Example 17, (S)-4-(4-(3-cyclopropylureido)phenyl)-N-ethyl-2-(3-methylmorpholino)-5H-pyrrolo[3,4-d]pyrimidine-6(7H)-carboxamide]
> 100	> 100	> 100	10 to 100	0.1 to 1	> 100	O=C(Nc1ccc(-c2nc(N3CC4CCC(C3)O4)nc3c2CNC3)cc1)NC1CC1 [Example 18, 1-(4-(2-(8-oxa-3-azabicyclo[3.2.1]octan-3-yl)-6,7-dihydro-5H-pyrrolo[3,4-d]pyrimidin-4-yl)phenyl)-3-cyclopropylurea]
1 to 10	10 to 100	1 to 10	10 to 100	≤ 0.1	10 to 100	C[C@H]1COCCN1c1nc2c(c(-c3ccc(NC(=O)NCCO)cc3)n1)CNC2 [Example 19, (S)-1-(2-hydroxyethyl)-3-(4-(2-(3-methylmorpholino)-6,7-dihydro-5H-pyrrolo[3,4-d]pyrimidin-4-yl)phenyl)urea]
> 100	10 to 100	> 100	> 100	1 to 10	10 to 100	C[C@H]1COCCN1c1nc2c(c(-c3ccc(NC(=O)NC4CC4)cc3)n1)CN(C(=O)CN(C)C)C2 [Example 20, (S)-1-cyclopropyl-3-(4-(6-(2-(dimethylamino)acetyl)-2-(3-methylmorpholino)-6,7-dihydro-5H-pyrrolo[3,4-d]pyrimidin-4-yl)phenyl)urea]
> 100	10 to 100	> 100	> 100	1 to 10	10 to 100	C[C@H]1COCCN1c1nc2c(c(-c3ccc(NC(=O)NC4CC4)cc3)n1)CN(C(=O)CCN(C)C)C2 [Example 21, (S)-1-cyclopropyl-3-(4-(6-(3-(dimethylamino)propanoyl)-2-(3-methylmorpholino)-6,7-dihydro-5H-pyrrolo[3,4-d]pyrimidin-4-yl)phenyl)urea]
10 to 100	10 to 100	10 to 100	> 100	0.1 to 1	1 to 10	C[C@H]1COCCN1c1nc2c(c(-c3ccc(NC(=O)NC4CC4)cc3)n1)CN(C(=O)CO)C2 [Example 22, (S)-1-cyclopropyl-3-(4-(6-(2-hydroxyacetyl)-2-(3-methylmorpholino)-6,7-dihydro-5H-pyrrolo[3,4-d]pyrimidin-4-yl)phenyl)urea]
10 to 100	10 to 100	> 100	> 100	0.1 to 1	10 to 100	C[C@H]1COCCN1c1nc2c(c(-c3ccc(NC(=O)NC4CC4)cc3)n1)CN(C(=O)CC#N)C2 [Example 23, (S)-1-(4-(6-(2-cyanoacetyl)-2-(3-methylmorpholino)-6,7-dihydro-5H-pyrrolo[3,4-d]pyrimidin-4-yl)phenyl)-3-cyclopropylurea]
10 to 100	10 to 100	10 to 100	> 100	1 to 10	10 to 100	C[C@H]1COCCN1c1nc2c(c(-c3ccc(NC(=O)Nc4ccncc4)cc3)n1)CNC2 [Example 24, (S)-1-(4-(2-(3-methylmorpholino)-6,7-dihydro-5H-pyrrolo[3,4-d]pyrimidin-4-yl)phenyl)-3-(pyridin-4-yl)urea]
1 to 10	1 to 10	1 to 10	> 100	0.1 to 1	10 to 100	C[C@H]1COCCN1c1nc2c(c(-c3ccc(NC(=O)Nc4cccc(O)n4)cc3)n1)CNC2 [Example 25, (S)-1-(6-hydroxypyridin-2-yl)-3-(4-(2-(3-methylmorpholino)-6,7-dihydro-5H-pyrrolo[3,4-d]pyrimidin-4-yl)phenyl)urea]
> 100	10 to 100	> 100	> 100	0.1 to 1	10 to 100	C[C@@H]1COCCN1c1nc2c(c(-c3ccc(NC(=O)NC4CC4)cc3)n1)CNC2 [Example 26, (R)-1-cyclopropyl-3-(4-(2-(3-methylmorpholino)-6,7-dihydro-5H-pyrrolo[3,4-d]pyrimidin-4-yl)phenyl)urea]
10 to 100	10 to 100	> 100	> 100	1 to 10	10 to 100	COCC(=O)N1Cc2nc(N3CCOC[C@@H]3C)nc(-c3ccc(NC(=O)NC4CC4)cc3)c2C1 [Example 27, (S)-1-cyclopropyl-3-(4-(6-(2-methoxyacetyl)-2-(3-methylmorpholino)-6,7-dihydro-5H-pyrrolo[3,4-d]pyrimidin-4-yl)phenyl)urea]
